In publication PMC11480411, “Mucosal sugars delineate pyrazine vs pyrazinone autoinducer signaling in Klebsiella oxytoca” (Nature Communications, 2024):

How the values were obtained:
Experiment in all cases: PRESTO-Tango GPCR screen
Assay type in all cases: cell-based
Conditions in all cases: 100 µM
[1] = molecular target: T1, ADRA1D (Homo sapiens, UniProt P25100)
T1 construct: purchased PRESTO-Tango GPCR kit (Roth lab / Addgene)
Outline: (§1)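 HTLA cells (HEK293 stably expressing β-arrestin-TEV and tTA-luciferase) transiently transfected with GPCR-Tango plasmids, then exposed to compound at 100 μM final for 20 h. Luminescence read after Bright-Glo; activation fold = RLU over PBS control. Dose-response spanned 10^−4 M to 10^−15 M.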

[2] = molecular target: T2, MAS1 (Homo sapiens, UniProt P04201)
T2 construct: purchased PRESTO-Tango GPCR kit (Roth lab / Addgene)
Outline: as §1

[3] = molecular target: T3, ADRA2C (Homo sapiens, UniProt P18825)
T3 construct: purchased PRESTO-Tango GPCR kit (Roth lab / Addgene)
Outline: as §1

[4] = molecular target: T4, GPR116 (Homo sapiens, UniProt Q8IZF2)
T4 construct: purchased PRESTO-Tango GPCR kit (Roth lab / Addgene)
Outline: as §1

[5] = molecular target: T5, CCR10 (Homo sapiens, UniProt P46092)
T5 construct: purchased PRESTO-Tango GPCR kit (Roth lab / Addgene)
Outline: as §1

[6] = molecular target: T6, CXCR5 (Homo sapiens, UniProt P32302)
T6 construct: purchased PRESTO-Tango GPCR kit (Roth lab / Addgene)
T6 sequence (P32302 whole entry): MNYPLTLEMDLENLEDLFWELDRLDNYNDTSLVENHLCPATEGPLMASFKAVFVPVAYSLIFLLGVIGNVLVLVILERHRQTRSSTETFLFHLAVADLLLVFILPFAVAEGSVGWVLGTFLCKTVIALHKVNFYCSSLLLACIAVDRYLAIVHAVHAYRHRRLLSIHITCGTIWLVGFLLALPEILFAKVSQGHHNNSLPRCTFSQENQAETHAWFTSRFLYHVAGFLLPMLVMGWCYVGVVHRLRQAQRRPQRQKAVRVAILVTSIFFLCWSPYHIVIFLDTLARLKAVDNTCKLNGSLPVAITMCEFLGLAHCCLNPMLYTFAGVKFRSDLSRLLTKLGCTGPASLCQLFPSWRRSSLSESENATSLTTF
Outline: as §1

[7] = molecular target: T7, HTR4 (Homo sapiens, UniProt Q13639)
T7 construct: purchased PRESTO-Tango GPCR kit (Roth lab / Addgene)
Outline: as §1

[8] = molecular target: T8, FFA3 (Homo sapiens, UniProt O14843)
T8 construct: purchased PRESTO-Tango GPCR kit (Roth lab / Addgene)
Outline: as §1

[9] = molecular target: T9, NPY4R (Homo sapiens, UniProt P50391)
T9 construct: purchased PRESTO-Tango GPCR kit (Roth lab / Addgene)
T9 sequence (P50391 whole entry): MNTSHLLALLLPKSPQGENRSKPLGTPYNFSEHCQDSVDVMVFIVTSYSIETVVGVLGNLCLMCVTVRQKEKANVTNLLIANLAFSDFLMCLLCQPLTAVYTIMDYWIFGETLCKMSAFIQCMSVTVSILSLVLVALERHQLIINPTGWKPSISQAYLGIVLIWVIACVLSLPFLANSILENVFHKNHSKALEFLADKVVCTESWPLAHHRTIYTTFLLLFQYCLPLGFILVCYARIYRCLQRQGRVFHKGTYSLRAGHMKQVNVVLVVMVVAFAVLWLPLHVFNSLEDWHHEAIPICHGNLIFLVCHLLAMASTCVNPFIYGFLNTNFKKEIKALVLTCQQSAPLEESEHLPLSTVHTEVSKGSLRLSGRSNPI
Outline: as §1

[10] = molecular target: T10, GABBR1 (Homo sapiens, UniProt Q9UBS5)
T10 construct: purchased PRESTO-Tango GPCR kit (Roth lab / Addgene)
T10 sequence (Q9UBS5 20-961): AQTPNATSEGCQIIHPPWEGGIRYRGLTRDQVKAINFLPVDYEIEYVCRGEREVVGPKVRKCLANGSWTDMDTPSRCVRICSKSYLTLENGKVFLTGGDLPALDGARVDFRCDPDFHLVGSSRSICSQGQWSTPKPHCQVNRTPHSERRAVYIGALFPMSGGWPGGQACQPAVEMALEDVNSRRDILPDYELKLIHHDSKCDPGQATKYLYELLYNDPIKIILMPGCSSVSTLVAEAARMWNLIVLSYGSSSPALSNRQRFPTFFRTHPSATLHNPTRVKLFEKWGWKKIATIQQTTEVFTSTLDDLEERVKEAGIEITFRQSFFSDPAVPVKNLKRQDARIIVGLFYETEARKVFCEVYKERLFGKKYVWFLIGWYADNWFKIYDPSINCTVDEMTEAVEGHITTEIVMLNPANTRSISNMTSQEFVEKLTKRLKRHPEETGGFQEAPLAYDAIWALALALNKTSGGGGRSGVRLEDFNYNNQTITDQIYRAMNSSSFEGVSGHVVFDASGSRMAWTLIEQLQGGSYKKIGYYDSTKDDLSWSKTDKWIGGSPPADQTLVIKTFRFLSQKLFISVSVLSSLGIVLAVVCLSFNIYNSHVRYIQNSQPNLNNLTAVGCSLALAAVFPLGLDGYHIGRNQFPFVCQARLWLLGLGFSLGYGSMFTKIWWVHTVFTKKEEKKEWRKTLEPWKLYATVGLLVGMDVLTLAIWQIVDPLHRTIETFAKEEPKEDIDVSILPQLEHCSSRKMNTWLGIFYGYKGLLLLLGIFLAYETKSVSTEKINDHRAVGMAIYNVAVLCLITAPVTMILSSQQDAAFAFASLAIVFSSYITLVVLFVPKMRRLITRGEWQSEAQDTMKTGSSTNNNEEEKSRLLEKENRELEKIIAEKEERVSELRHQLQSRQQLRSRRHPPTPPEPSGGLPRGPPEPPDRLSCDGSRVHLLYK
Outline: as §1

[11] = molecular target: T11, GPR120 (Homo sapiens, UniProt Q5NUL3)
T11 construct: purchased PRESTO-Tango GPCR kit (Roth lab / Addgene)
T11 sequence (Q5NUL3 whole entry): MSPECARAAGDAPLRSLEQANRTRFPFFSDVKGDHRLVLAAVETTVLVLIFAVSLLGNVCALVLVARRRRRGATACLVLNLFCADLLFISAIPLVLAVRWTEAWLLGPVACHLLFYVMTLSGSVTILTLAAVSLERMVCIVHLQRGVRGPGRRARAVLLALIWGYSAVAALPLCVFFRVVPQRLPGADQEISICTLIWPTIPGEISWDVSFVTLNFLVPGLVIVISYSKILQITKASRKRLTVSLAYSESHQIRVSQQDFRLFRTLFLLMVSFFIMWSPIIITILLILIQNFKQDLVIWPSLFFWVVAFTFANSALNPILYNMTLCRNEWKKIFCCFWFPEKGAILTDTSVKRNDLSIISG
Outline: as §1

[12] = molecular target: T12, SCTR (Homo sapiens, UniProt P47872)
T12 construct: purchased PRESTO-Tango GPCR kit (Roth lab / Addgene)
Outline: as §1

[13] = molecular target: T13, CCKBR (Homo sapiens, UniProt P32239)
T13 construct: purchased PRESTO-Tango GPCR kit (Roth lab / Addgene)
T13 sequence (P32239 whole entry): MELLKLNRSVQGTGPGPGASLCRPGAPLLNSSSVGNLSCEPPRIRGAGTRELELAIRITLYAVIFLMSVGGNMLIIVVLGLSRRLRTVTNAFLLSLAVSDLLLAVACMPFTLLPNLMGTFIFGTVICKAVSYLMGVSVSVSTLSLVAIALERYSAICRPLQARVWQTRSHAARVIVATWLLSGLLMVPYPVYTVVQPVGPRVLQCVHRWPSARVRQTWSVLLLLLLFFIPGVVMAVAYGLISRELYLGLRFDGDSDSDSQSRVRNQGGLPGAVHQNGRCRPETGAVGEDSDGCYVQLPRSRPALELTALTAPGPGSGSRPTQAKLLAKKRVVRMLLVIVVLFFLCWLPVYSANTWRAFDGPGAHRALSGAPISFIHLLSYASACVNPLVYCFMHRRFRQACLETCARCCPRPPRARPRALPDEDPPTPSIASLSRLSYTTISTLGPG
Outline: as §1

[14] = molecular target: T14, HCA1 (Homo sapiens, UniProt Q9BXC0)
T14 construct: purchased PRESTO-Tango GPCR kit (Roth lab / Addgene)
Outline: as §1

[15] = molecular target: T15, GIPR (Homo sapiens, UniProt P48546)
T15 construct: purchased PRESTO-Tango GPCR kit (Roth lab / Addgene)
Outline: as §1

[16] = molecular target: T16, GPR158 (Homo sapiens, UniProt Q5T848)
T16 construct: purchased PRESTO-Tango GPCR kit (Roth lab / Addgene)
Outline: as §1

[17] = molecular target: T17, OPN5 (Homo sapiens, UniProt Q6U736)
T17 construct: purchased PRESTO-Tango GPCR kit (Roth lab / Addgene)
T17 sequence (Q6U736 whole entry): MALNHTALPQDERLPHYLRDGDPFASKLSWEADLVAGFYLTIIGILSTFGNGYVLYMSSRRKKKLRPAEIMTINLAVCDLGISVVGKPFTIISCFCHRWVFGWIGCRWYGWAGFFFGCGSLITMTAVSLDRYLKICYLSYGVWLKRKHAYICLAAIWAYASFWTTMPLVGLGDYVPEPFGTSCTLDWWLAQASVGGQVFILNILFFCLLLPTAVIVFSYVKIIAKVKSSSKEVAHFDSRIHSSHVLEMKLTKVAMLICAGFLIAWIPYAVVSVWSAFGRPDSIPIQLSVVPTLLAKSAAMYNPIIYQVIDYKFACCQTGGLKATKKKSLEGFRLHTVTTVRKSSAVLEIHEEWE
Outline: as §1

[18] = molecular target: T18, HTR1D (Homo sapiens, UniProt P28221)
T18 construct: purchased PRESTO-Tango GPCR kit (Roth lab / Addgene)
T18 sequence (P28221 whole entry): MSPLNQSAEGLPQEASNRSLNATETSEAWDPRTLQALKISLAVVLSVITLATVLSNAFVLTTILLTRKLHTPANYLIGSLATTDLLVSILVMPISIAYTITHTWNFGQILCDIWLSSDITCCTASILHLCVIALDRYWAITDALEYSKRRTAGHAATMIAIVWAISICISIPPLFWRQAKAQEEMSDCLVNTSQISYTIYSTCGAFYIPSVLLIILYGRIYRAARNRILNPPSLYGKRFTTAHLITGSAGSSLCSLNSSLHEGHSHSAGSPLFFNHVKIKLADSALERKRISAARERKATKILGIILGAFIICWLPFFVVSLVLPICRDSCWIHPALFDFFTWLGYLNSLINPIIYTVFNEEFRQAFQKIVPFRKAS
Outline: as §1

[19] = molecular target: T19, GPR156 (Homo sapiens, UniProt Q8NFN8)
T19 construct: purchased PRESTO-Tango GPCR kit (Roth lab / Addgene)
T19 sequence (Q8NFN8 whole entry): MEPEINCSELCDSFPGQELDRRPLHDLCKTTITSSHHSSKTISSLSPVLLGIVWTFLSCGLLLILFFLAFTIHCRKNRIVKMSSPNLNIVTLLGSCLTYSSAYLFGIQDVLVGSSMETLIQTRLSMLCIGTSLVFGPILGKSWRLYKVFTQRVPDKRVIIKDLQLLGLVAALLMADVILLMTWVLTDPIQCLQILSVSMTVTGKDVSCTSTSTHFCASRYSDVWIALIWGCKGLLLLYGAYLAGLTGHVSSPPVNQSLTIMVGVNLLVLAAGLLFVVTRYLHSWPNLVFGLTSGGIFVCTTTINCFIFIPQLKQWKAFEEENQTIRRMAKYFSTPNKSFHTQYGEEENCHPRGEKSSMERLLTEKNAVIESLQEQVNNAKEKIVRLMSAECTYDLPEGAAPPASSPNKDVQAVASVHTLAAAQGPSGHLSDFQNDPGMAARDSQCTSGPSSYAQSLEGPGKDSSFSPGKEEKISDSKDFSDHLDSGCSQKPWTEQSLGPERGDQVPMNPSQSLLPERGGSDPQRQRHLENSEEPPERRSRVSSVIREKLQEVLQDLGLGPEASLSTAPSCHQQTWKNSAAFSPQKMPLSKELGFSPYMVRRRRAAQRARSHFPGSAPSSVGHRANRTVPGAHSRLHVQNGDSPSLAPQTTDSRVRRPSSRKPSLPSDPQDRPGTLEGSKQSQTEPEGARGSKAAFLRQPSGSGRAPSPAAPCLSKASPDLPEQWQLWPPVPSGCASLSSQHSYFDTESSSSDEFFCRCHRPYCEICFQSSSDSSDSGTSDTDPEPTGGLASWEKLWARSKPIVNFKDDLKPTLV
Outline: as §1

[20] = molecular target: T20, GPR141 (Homo sapiens, UniProt Q7Z602)
T20 construct: purchased PRESTO-Tango GPCR kit (Roth lab / Addgene)
T20 sequence (Q7Z602 whole entry): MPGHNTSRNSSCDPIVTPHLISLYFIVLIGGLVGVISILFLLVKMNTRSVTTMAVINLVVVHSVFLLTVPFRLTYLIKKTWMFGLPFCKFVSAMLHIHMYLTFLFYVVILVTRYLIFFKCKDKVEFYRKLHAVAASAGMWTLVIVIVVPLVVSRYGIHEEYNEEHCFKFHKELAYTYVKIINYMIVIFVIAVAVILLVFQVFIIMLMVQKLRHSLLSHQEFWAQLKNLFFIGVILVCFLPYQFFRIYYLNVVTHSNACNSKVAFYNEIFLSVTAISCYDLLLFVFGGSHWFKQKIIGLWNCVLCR
Outline: as §1

[21] = molecular target: T21, GPR160 (Homo sapiens, UniProt Q9UJ42)
T21 construct: purchased PRESTO-Tango GPCR kit (Roth lab / Addgene)
Outline: as §1

[22] = molecular target: T22, ADRA2A (Homo sapiens, UniProt P08913)
T22 construct: purchased PRESTO-Tango GPCR kit (Roth lab / Addgene)
Outline: as §1

[23] = molecular target: T23, SSTR1 (Homo sapiens, UniProt P30872)
T23 construct: purchased PRESTO-Tango GPCR kit (Roth lab / Addgene)
Outline: as §1

[24] = molecular target: T24, TACR3 (Homo sapiens, UniProt P29371)
T24 construct: purchased PRESTO-Tango GPCR kit (Roth lab / Addgene)
Outline: as §1

[25] = molecular target: T25, FPR1 (Homo sapiens, UniProt P21462)
T25 construct: purchased PRESTO-Tango GPCR kit (Roth lab / Addgene)
Outline: as §1

[26] = molecular target: T26, GPR144 (Homo sapiens, UniProt Q7Z7M1)
T26 construct: purchased PRESTO-Tango GPCR kit (Roth lab / Addgene)
Outline: as §1

[27] = molecular target: T27, NPBW1 (Homo sapiens, UniProt P48145)
T27 construct: purchased PRESTO-Tango GPCR kit (Roth lab / Addgene)
Outline: as §1

[28] = molecular target: T28, GPR34 (Homo sapiens, UniProt Q9UPC5)
T28 construct: purchased PRESTO-Tango GPCR kit (Roth lab / Addgene)
Outline: as §1

[29] = molecular target: T29, UTS2R (Homo sapiens, UniProt Q9UKP6)
T29 construct: purchased PRESTO-Tango GPCR kit (Roth lab / Addgene)
Outline: as §1

[30] = molecular target: T30, GPR85 (Homo sapiens, UniProt P60893)
T30 construct: purchased PRESTO-Tango GPCR kit (Roth lab / Addgene)
Outline: as §1

[31] = molecular target: T31, MCHR2 (Homo sapiens, UniProt Q969V1)
T31 construct: purchased PRESTO-Tango GPCR kit (Roth lab / Addgene)
Outline: as §1

[32] = molecular target: T32, TA1 (Homo sapiens, UniProt Q96RJ0)
T32 construct: purchased PRESTO-Tango GPCR kit (Roth lab / Addgene)
Outline: as §1

[33] = molecular target: T33, GPR83 (Homo sapiens, UniProt Q9NYM4)
T33 construct: purchased PRESTO-Tango GPCR kit (Roth lab / Addgene)
Outline: as §1

[34] = molecular target: T34, FFA2 (Homo sapiens, UniProt O15552)
T34 construct: purchased PRESTO-Tango GPCR kit (Roth lab / Addgene)
T34 sequence (O15552 whole entry): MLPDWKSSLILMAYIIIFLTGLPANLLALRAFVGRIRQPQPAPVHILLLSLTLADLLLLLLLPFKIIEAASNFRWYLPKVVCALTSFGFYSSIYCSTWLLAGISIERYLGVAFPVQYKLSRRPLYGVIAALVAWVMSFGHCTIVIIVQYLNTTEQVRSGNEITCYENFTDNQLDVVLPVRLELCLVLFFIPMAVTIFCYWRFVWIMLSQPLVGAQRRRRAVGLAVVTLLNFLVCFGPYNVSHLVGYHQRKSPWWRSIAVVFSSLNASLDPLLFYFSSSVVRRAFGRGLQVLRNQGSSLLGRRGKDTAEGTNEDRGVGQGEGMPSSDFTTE
Outline: as §1

[35] = molecular target: T35, FFA1 (Homo sapiens, UniProt O14842)
T35 construct: purchased PRESTO-Tango GPCR kit (Roth lab / Addgene)
Outline: as §1

[36] = molecular target: T36, NPY2R (Homo sapiens, UniProt P49146)
T36 construct: purchased PRESTO-Tango GPCR kit (Roth lab / Addgene)
Outline: as §1

| SMILES | GPCR activation (heatmap value) [1] | GPCR activation (heatmap value) [2] | GPCR activation (heatmap value) [3] | GPCR activation (heatmap value) [4] | GPCR activation (heatmap value) [5] | GPCR activation (heatmap value) [6] | GPCR activation (heatmap value) [7] | GPCR activation (heatmap value) [8] | GPCR activation (heatmap value) [9] | GPCR activation (heatmap value) [10] | GPCR activation (heatmap value) [11] | GPCR activation (heatmap value) [12] | GPCR activation (heatmap value) [13] | GPCR activation (heatmap value) [14] | GPCR activation (heatmap value) [15] | GPCR activation (heatmap value) [16] | GPCR activation (heatmap value) [17] | GPCR activation (heatmap value) [18] | GPCR activation (heatmap value) [19] | GPCR activation (heatmap value) [20] | further results |
| --- | --- | --- | --- | --- | --- | --- | --- | --- | --- | --- | --- | --- | --- | --- | --- | --- | --- | --- | --- | --- | --- |
| CC(C)Cc1ncc(CCCCNC(=N)N)[nH]c1=O [3-Homo] | 0.4606 | 0.05755 | 0.6954 | -0.4317 | 0.7826 | -0.9057 | -0.1279 | -0.4191 | 1.0914 | -1.048 | 0.1572 | -0.8565 | 0.2356 | -0.6134 | 0.1024 | -0.4311 | -0.4496 | -0.01602 | 0.2712 | 0.2402 | GPCR activation (heatmap value) [21]: 0.53; GPCR activation (heatmap value) [22]: -0.8336; GPCR activation (heatmap value) [23]: -0.2346; GPCR activation (heatmap value) [24]: -0.1118; GPCR activation (heatmap value) [25]: -1.272; GPCR activation (heatmap value) [26]: -0.2529; GPCR activation (heatmap value) [27]: -0.4089; GPCR activation (heatmap value) [28]: -0.6255; GPCR activation (heatmap value) [29]: -1.423; GPCR activation (heatmap value) [30]: -0.7717; GPCR activation (heatmap value) [31]: -0.05748; GPCR activation (heatmap value) [32]: 0.4199; GPCR activation (heatmap value) [33]: 0.2309; GPCR activation (heatmap value) [34]: -0.3322; GPCR activation (heatmap value) [35]: -0.171; GPCR activation (heatmap value) [36]: 0.3401 |
| CC(C)Cc1ncc(CCCNC(=N)N)[nH]c1=O [compound 3] | -0.2106 | 0.09111 | 0.2266 | -0.4037 | 0.9946 | 0.2848 | -1.236 | -0.2613 | 0.793 | 0.7353 | 0.8927 | -0.3327 | 0.2979 | 0.05882 | 0.1911 | -0.2474 | -1.123 | 0.2043 | 0.1542 | -0.1192 | GPCR activation (heatmap value) [21]: 0.6688; GPCR activation (heatmap value) [22]: 0.08001; GPCR activation (heatmap value) [23]: 0.2369; GPCR activation (heatmap value) [24]: -0.7714; GPCR activation (heatmap value) [25]: 0.7196; GPCR activation (heatmap value) [26]: 0.6653; GPCR activation (heatmap value) [27]: -0.8992; GPCR activation (heatmap value) [28]: 0.3024; GPCR activation (heatmap value) [29]: 0.9484; GPCR activation (heatmap value) [30]: -0.1892; GPCR activation (heatmap value) [31]: -1.212; GPCR activation (heatmap value) [32]: -0.5267; GPCR activation (heatmap value) [33]: -0.04196; GPCR activation (heatmap value) [34]: -0.009625; GPCR activation (heatmap value) [35]: -0.7235; GPCR activation (heatmap value) [36]: 0.1932 |
